What was measured:
[1] = tested on: endothelial cells of the microcirculatory system; test: endothelial cell migration, Boyden chambers; format: cell-based; conditions: compared with other NO donors
Source text: The pharmacological activity of the compounds of the invention has been evaluated by their relaxation induction effect in vascular preparations (rabbit aorta rings) precontracted with noradrenaline (Amerini et al., J. Cardiovasc. Pharmacol., 28: 82-88, […]). The endothelio-protective and pro-angiogenetic effects of the compounds have also been evaluated in a study on the proliferation and migration of endothelial cells of the microcirculatory system (M. Ziche et al., J. Clin. Invest. 94: 2036-2044, 1994).
The endothelio-protective and pro-angiogenetic effect of the compounds was also evaluated by measuring the growth promotion and migration effect on endothelial cells of the microcirculatory system compared with other NO donors. Cell migration was evaluated using Boyden chambers, and proliferation as the total number of cells after 48 hours of exposure to the substances under study (M. Ziche et al., J. Clin. Invest. 94: 2036-2044, 1994).

[2] = tested on: rabbit aorta precontracted with noradrenaline; test: relaxation of rabbit aorta precontracted with noradrenaline

NCCCNCCCCN(CCCN)/[N+]([O-])=N/O [SpermineNONOate, spermineNONOate]
effect on endothelial cell migration, result in words [1]: little active and does not give the maximum effect
vascular relaxation, result in words [2]: much less powerful than piperazineNONOate complexes

— patent publication US6897218B2, “Nitric oxide donors based on metallic centers” (Consiglio Nazionale Delle Ricerche, priority 2001, dated 2005)
